Laboratory results published in US4703107A, “Water-soluble acylated derivatives of peptides or amino acids, their preparation and their use” (priority 1983, dated 1987).
Converted amounts (≈) assume the structure as drawn. Counter-ions that a name gives are not always drawn. Like-named read-outs stand apart in the source and are kept apart here. Where a SMILES comes first, the peptide text is derived from it. The star is where a group is joined. Doxorubicin(3'-N) = COc1cccc2c1C(=O)c1c(O)c3c(c(O)c1C2=O)C[C@@](O)(C(=O)CO)C[C@@H]3O[C@H]1C[C@H](N*)[C@H](O)[C@H](C)O1; dGluconoyl = O=C([C@H](O)[C@@H](O)[C@H](O)[C@H](O)CO)*; NH(9-Et-carbazol-3-yl) = CCn1c2ccccc2c2cc(N*)ccc21; AMC = Cc1cc(=O)oc2cc(N*)ccc12

Assays:
[1] = pH 8.1, aqueous buffer
[2] = Table IV; same values as Table I
mice = experiment: Toxicity of prodrugs on mice; assay type: in vivo; details: for Apparent lesions: two intravenous injections at days 0 and 2, footnotes to day 30 column; for Number of surviving mice at day 8 / Number of surviving mice at day 30 / Weight variation at day 8: two intravenous injections at days 0 and 2, mg/kg/injection: ADR 19,7, GlcA-Gly-Pro-Lys-ADR 35,1, GlcA-Ile-Phe-Lys-ADR 37,0
From the text: GlcA-Gly-Pro-Lys-Adriamycin and GlcA-Ile-Phe-Lys-Adriamycin was studied on mice after two intravenous injections at days 0 and 2.

[3] = Solubility in distilled water / aqueous solution; assay type: physicochemical; details: for solubility in distilled water: at 20° C.
Method: The solubility of the PHA-L-Ala-L-Ala-L-Pro-L-Ala-AEC is greater than 80 mg/ml in distilled water or a buffer with a pH between 3 and 9.
The solubility of this compound in distilled water is 2.0 mM/l at 20° C.
The influence of the length of the N-acylating polyhydroxyalcanoyl group on the water solubility of fluorogenic substrates is shown in Table III in the case of a chymotrypsin specific substrate PHA-L-Ala-L-Ala-L-Phe-7-amido-4-methylcoumarin.

[4] = test system: leucemic cells L1210, Lewis lung carcinoma "3LL"; experiment: Penetration into and death of tumor cells; assay type: cell-based
[5] = Table III, water solubility, 20° C., read-out: SOLUBILITY (mM AT 20° C.)

Compound: CC[C@H](C)[C@H](NC(=O)[C@H](O)[C@@H](O)[C@H](O)[C@H](O)CO)C(=O)N[C@@H](CC(C)C)C(=O)N[C@@H](CCCNC(=N)N)C(=O)Nc1ccc2c(c1)c1ccccc1n2CC [GlcA--Ile--Leu--Arg--AEC]
- solubility [1]: 143 mM (≈ 110 mg/mL)
- solubility [2]: 143 mM (≈ 110 mg/mL)

Compound: CC[C@H](C)[C@H](NC(=O)OCc1ccccc1)C(=O)N[C@@H](Cc1ccccc1)C(=O)N[C@@H](CCCCN)C(=O)Nc1ccc2c(c1)c1ccccc1n2CC [Z--Ile--Phe--Lys--AEC, reference compound]
- solubility [1]: 0.03 mM (≈ 0.022 mg/mL)

Compound: CC[C@H](C)[C@H](NC(=O)OC(C)(C)C)C(=O)N[C@@H](Cc1ccccc1)C(=O)N[C@@H](CCCCN)C(=O)Nc1ccc2c(c1)c1ccccc1n2CC [Boc--Ile--Phe--Lys--AEC, reference compound]
- solubility [1]: 0.04 mM (≈ 0.028 mg/mL)

Compound: CCn1c2ccccc2c2cc(NC(=O)[C@H](CCCCN)NC(=O)[C@H](Cc3ccccc3)NC(=O)[C@@H](NC(=O)CNC(=O)[C@H](O)[C@@H](O)[C@H](O)[C@H](O)CO)C(C)C)ccc21 [GlcA--Gly--Val--Phe--Lys--AEC] (dGluconoyl-GVFK-{NH(9-Et-carbazol-3-yl)})
- solubility [1]: 4.2 mM (≈ 3.44 mg/mL)
- solubility [2]: 4.2 mM (≈ 3.44 mg/mL)

Compound: CC[C@H](C)[C@H](NC(=O)[C@H](O)[C@@H](O)[C@H](O)[C@H](O)CO)C(=O)N[C@@H](Cc1ccccc1)C(=O)N[C@@H](CCCCN)C(=O)N[C@H]1C[C@H](O[C@H]2C[C@](O)(C(=O)CO)Cc3c(O)c4c(c(O)c32)C(=O)c2c(OC)cccc2C4=O)O[C@@H](C)[C@H]1O [GlcA--Ile--Phe--Lys--ADR, Glc A-L-Ile-L-Phe-L-Lys-Adriamycin]
- Apparent lesions (mice): No apparent lesion
- Number of surviving mice at day 8 (mice): 8/8
- Number of surviving mice at day 30 (mice): 8/8
- Weight variation at day 8 (mice): +14,7%

Compound: CCn1c2ccccc2c2cc(NC(=O)[C@H](CCCCN)NC(=O)[C@H](Cc3ccccc3)NC(=O)[C@@H](NC(=O)[C@H](O)[C@@H](O)[C@H](O)[C@H](O)CO)C(C)C)ccc21 [GlcA--Val--Phe--Lys--AEC]
- solubility [1]: 165 mM (≈ 126 mg/mL)
- solubility [2]: 165 mM (≈ 126 mg/mL)

Compound: COc1cccc2c1C(=O)c1c(O)c3c(c(O)c1C2=O)C[C@@](O)(C(=O)CO)C[C@@H]3O[C@H]1C[C@H](N)[C@H](O)[C@H](C)O1 [ADR, Adriamycin, reference compound]
- Number of surviving mice at day 8 (mice): 0/8
- Number of surviving mice at day 30 (mice): 0/8
- Weight variation at day 8 (mice): -17,8%

Compound: Cc1cc(=O)oc2cc(NC(=O)[C@H](Cc3ccccc3)NC(=O)[C@H](C)NC(=O)[C@H](C)NC(=O)C(O)C(O)C(O)C(O)C(O)C(O)CO)ccc12 (stereo partly drawn) [glucooctanoyl-L-Ala-L-Ala-L-Phe-AMC]
- solubility [3, 5]: 3.2 mM
- solubility in distilled water [3]: 3.2 mM/l

Compound: CC(=O)N[C@@H](C)C(=O)N[C@@H](C)C(=O)N[C@@H](Cc1ccccc1)C(=O)Nc1ccc2c(C)cc(=O)oc2c1 [AcAlaAlaPheAMC, reference compound] (Ac-Ala-Ala-Phe-{AMC})
- solubility [3, 5]: 0.2 mM

Compound: CC[C@H](C)[C@H](NC(=O)[C@H](O)[C@@H](O)[C@H](O)[C@H](O)CO)C(=O)N[C@@H](Cc1ccccc1)C(=O)N[C@@H](CCCNC(=N)N)C(=O)Nc1ccc2c(c1)c1ccccc1n2CC [GlcA--Ile--Phe--Arg--AEC]
- solubility [1]: 1.1 mM (≈ 0.885 mg/mL)

Compound: CCn1c2ccccc2c2cc(NC(=O)[C@H](C)NC(=O)[C@@H]3CCCN3C(=O)[C@H](C)NC(=O)[C@H](C)NC(=O)[C@H](O)[C@@H](O)[C@H](O)[C@H](O)CO)ccc21 [PHA-L-Ala-L-Ala-L-Pro-L-Ala-AEC] (dGluconoyl-AAPA-{NH(9-Et-carbazol-3-yl)})
- solubility ([3]; aqueous with cosolvent or surfactant or cyclodextrin, in distilled water or a buffer with a pH between 3 and 9, read-out: solubility): > 80 mg/mL

Compound: COc1cccc2c1C(=O)c1c(O)c3c(c(O)c1C2=O)C[C@@](O)(C(=O)CO)C[C@@H]3O[C@H]1C[C@H](NC(=O)[C@H](CCCCN)NC(=O)[C@@H]2CCCN2C(=O)CNC(=O)[C@H](O)[C@@H](O)[C@H](O)[C@H](O)CO)[C@H](O)[C@H](C)O1 [GlcA--Gly--Pro--Lys--ADR, PHA-Gly-L-Pro-L-Lys-Adriamycin]
- Apparent lesions (mice): No apparent lesion
- Number of surviving mice at day 8 (mice): 8/8
- Number of surviving mice at day 30 (mice): 8/8
- Weight variation at day 8 (mice): +15,2%

Compound: CCn1c2ccccc2c2cc(NC(=O)[C@H](CCCCN)NC(=O)[C@@H]3CCCN3C(=O)CNC(=O)[C@H](O)[C@@H](O)[C@H](O)[C@H](O)CO)ccc21 [GlcA--Gly--Pro--Lys--AEC]
- solubility [1]: 380 mM (≈ 255 mg/mL)
- solubility [2]: 380 mM (≈ 255 mg/mL)

Compound: CCn1c2ccccc2c2cc(NC(=O)[C@H](CCCNC(=N)N)NC(=O)[C@H](Cc3ccccc3)NC(=O)[C@@H](NC(=O)CNC(=O)[C@H](O)[C@@H](O)[C@H](O)[C@H](O)CO)C(C)C)ccc21 [GlcA--Gly--Val--Phe--Arg--AEC] (dGluconoyl-GVFR-{NH(9-Et-carbazol-3-yl)})
- solubility [1]: 3.6 mM (≈ 3.05 mg/mL)
- solubility [2]: 3.6 mM (≈ 3.05 mg/mL)

Compound: CC[C@H](C)[C@H](NC(=O)[C@H](O)[C@@H](O)[C@H](O)[C@H](O)CO)C(=O)N[C@@H](CC(C)C)C(=O)N[C@@H](CCCCN)C(=O)Nc1ccc2c(c1)c1ccccc1n2CC [GlcA--Ile--Leu--Lys--AEC]
- solubility [1]: 94 mM (≈ 69.8 mg/mL)
- solubility [2]: 94 mM (≈ 69.8 mg/mL)

Compound: Cc1cc(=O)oc2cc(NC(=O)[C@H](Cc3ccccc3)NC(=O)[C@H](C)NC(=O)[C@H](C)NC(=O)[C@H](O)[C@@H](O)[C@H](O)[C@H](O)CO)ccc12 [gluconoyl-L-Ala-L-Ala-L-Phe-AMC]
- solubility [3, 5]: 2.4 mM
- solubility in distilled water [3]: 2.4 mM/l

Compound: CCn1c2ccccc2c2cc(NC(=O)[C@H](CCCNC(=N)N)NC(=O)[C@H](Cc3ccccc3)NC(=O)[C@@H](NC(=O)[C@H](O)[C@@H](O)[C@H](O)[C@H](O)CO)C(C)C)ccc21 [GlcA--Val--Phe--Arg--AEC]
- solubility [1]: 100 mM (≈ 79.1 mg/mL)
- solubility [2]: 100 mM (≈ 79.1 mg/mL)

Compound: CC[C@H](C)[C@H](NC(=O)[C@H](O)[C@@H](O)[C@H](O)[C@H](O)CO)C(=O)N[C@@H](Cc1ccccc1)C(=O)N[C@@H](CCCCN)C(=O)Nc1ccc2c(c1)c1ccccc1n2CC [GlcA--Ile--Phe--Lys--AEC, Glc A-Ile-Phe-Lys-AEC, HCl]
- solubility [1]: 0.54 mM

Compound: COc1cccc2c1C(=O)c1c(O)c3c(c(O)c1C2=O)C[C@@](O)(C(=O)CO)C[C@@H]3O[C@H]1C[C@H](NC(=O)[C@@H](N)CC(C)C)[C@H](O)[C@H](C)O1 [L-Leu-Adriamycine, L-Leu-Adriamycin]
- penetration into tumor cells ([4]; leucemic cells L1210, Lewis lung carcinoma 3LL): penetrates the tumor cells
- death of tumor cells ([4]; tumor cells): causes the death of these cells

Compound: CCn1c2ccccc2c2cc(NC(=O)[C@H](CCCCN)NC(=O)[C@@H]3CCCN3C(=O)CNC(=O)OCc3ccccc3)ccc21 [Z--Gly--Pro--Lys--AEC, reference compound]
- solubility [1]: 0.2 mM (≈ 0.125 mg/mL)

Compound: COc1cccc2c1C(=O)c1c(O)c3c(c(O)c1C2=O)C[C@@](O)(C(=O)CO)C[C@@H]3O[C@H]1C[C@H](NC(=O)[C@H](CC(C)C)NC(=O)[C@H](CCCNC(=N)N)NC(=O)[C@@H]2CCCN2C(=O)[C@H](Cc2ccccc2)NC(=O)[C@H](O)[C@@H](O)[C@H](O)[C@H](O)CO)[C@H](O)[C@H](C)O1 [PHA-L-Phe-L-Pro-L-Arg-L-Leu-Adriamycin] (dGluconoyl-FPRL-{Doxorubicin(3'-N)})
- solubility in water ([3]; water): soluble in water

Compound: CCn1c2ccccc2c2cc(NC(=O)[C@H](CCCCN)NC(=O)[C@H](CC(C)C)NC(=O)[C@@H](NC(=O)[C@H](O)[C@@H](O)[C@H](O)[C@H](O)CO)C(C)C)ccc21 [GlcA--Val--Leu--Lys--AEC]
- solubility [1]: 250 mM (≈ 182 mg/mL)
- solubility [2]: 250 mM (≈ 182 mg/mL)

Compound: CCn1c2ccccc2c2cc(NC(=O)[C@H](CCCCN)NC(=O)CNC(=O)[C@H](CC(C)C)NC(=O)[C@@H](NC(=O)[C@H](O)[C@@H](O)[C@H](O)[C@H](O)CO)C(C)C)ccc21 [GlcA--Val--Leu--Gly--Lys--AEC] (dGluconoyl-VLGK-{NH(9-Et-carbazol-3-yl)})
- solubility [1]: 62 mM (≈ 48.7 mg/mL)

Compound: CC[C@H](C)[C@H](NC(=O)CNC(=O)[C@H](O)[C@@H](O)[C@H](O)[C@H](O)CO)C(=O)N[C@@H](Cc1ccccc1)C(=O)N[C@@H](CCCCN)C(=O)Nc1ccc2c(c1)c1ccccc1n2CC [GlcA--Gly--Ile--Phe--Lys--AEC] (dGluconoyl-GIFK-{NH(9-Et-carbazol-3-yl)})
- solubility [1]: 2.5 mM (≈ 2.08 mg/mL)

Compound: CCn1c2ccccc2c2cc(NC(=O)[C@H](CCCCN)NC(=O)[C@H](CC(C)C)NC(=O)[C@@H](NC(=O)OC(C)(C)C)C(C)C)ccc21 [Boc--Val--Leu--Lys--AEC, reference compound]
- solubility [1]: 2.5 mM (≈ 1.63 mg/mL)

Compound: CCn1c2ccccc2c2cc(NC(=O)[C@H](CCCCN)NC(=O)CNC(=O)[C@H](CO)NC(=O)[C@H](O)[C@@H](O)[C@H](O)[C@H](O)CO)ccc21 [GlcA--Ser--Gly--Lys--AEC]
- solubility [1]: 54 mM (≈ 35.7 mg/mL)

Compound: Cc1cc(=O)oc2cc(NC(=O)[C@H](Cc3ccccc3)NC(=O)[C@H](C)NC(=O)[C@H](C)NC(=O)[C@H](O)[C@H](O)[C@H](O)CO)ccc12 [ribonoyl-L-Ala-L-Ala-L-Phe-AMC]
- solubility [3, 5]: 2 mM
- solubility in distilled water [3]: 2.0 mM/l

Compound: CCn1c2ccccc2c2cc(NC(=O)[C@H](CCCNC(=N)N)NC(=O)[C@H](CC(C)C)NC(=O)[C@@H](NC(=O)[C@H](O)[C@@H](O)[C@H](O)[C@H](O)CO)C(C)C)ccc21 [GlcA--Val--Leu--Arg--AEC]
- solubility [1]: 227 mM (≈ 172 mg/mL)
- solubility [2]: 227 mM (≈ 172 mg/mL)

Compound: CCn1c2ccccc2c2cc(NC(=O)[C@H](CCCNC(=N)N)NC(=O)CNC(=O)[C@H](CC(C)C)NC(=O)[C@@H](NC(=O)[C@H](O)[C@@H](O)[C@H](O)[C@H](O)CO)C(C)C)ccc21 [GlcA--Val--Leu--Gly--Arg--AEC] (dGluconoyl-VLGR-{NH(9-Et-carbazol-3-yl)})
- solubility [1]: 67 mM (≈ 54.5 mg/mL)
- solubility [2]: 67 mM (≈ 54.5 mg/mL)
